≈ marks a conversion by molar mass, not a printed value. Where “and” joins values, the source holds several entries; their conditions need not be identical. Equal entries are not always repeated.
Experiments:
[1] = test system: Staphylococcus aureus X1.1; experiment: agar-dilution MIC; assay type: cell-based; conditions: two values = two experiments, 2 median of five, 19 median of three experiments
Experimental: (§1) In Table VII activity is measured by the minimal inhibitory concentration (MIC), i.e. the lowest concentration of compound at which growth of the microorganism is inhibited by the test compound.

[2] = test system: Staphylococcus aureus V41; experiment: agar-dilution MIC; assay type: cell-based; conditions: Staphylococcus aureus V41, penicillin-resistant strain; two values = two experiments; 2 median of five, 19 median of three
Experimental: as §1

[3] = test system: Staphylococcus aureus X400; experiment: agar-dilution MIC; assay type: cell-based; conditions: Staphylococcus aureus X400, methicillin-resistant strain; two values = two experiments; 2 median of five, 19 median of three
Experimental: as §1

[4] = test system: Staphylococcus epidermidis EPI1; assay type: cell-based; conditions: two values = two experiments, 2 median of five, 19 median of three
[5] = test system: Staphylococcus epidermidis EPI2; experiment: agar-dilution MIC; assay type: cell-based; conditions: two values = two experiments, 2 median of five, 19 median of three
[6] = test system: Streptococcus pyogenes C203; experiment: agar-dilution MIC; assay type: cell-based; conditions: two values = two experiments, 2 median of five, 19 median of three
[7] = test system: Streptococcus Group D X66; experiment: agar-dilution MIC; assay type: cell-based; conditions: two values = two experiments, 2 median of five, 19 median of three
Experimental: as §1

[8] = test system: Streptococcus Group D 9960; experiment: agar-dilution MIC; assay type: cell-based; conditions: two values = two experiments, 2 median of five, 19 median of three
Experimental: as §1

[9] = toxicity test, LD50; conditions: mouse, in vivo, iv; administered intravenously; read-out: LD50 (mg/kg) in Mice
[10] = test system: Staphylococcus aureus; experiment: in vivo experimental bacterial infection, ED50; conditions: mice, two doses subcutaneously; two values = two experiments
[11] = test system: Streptococcus pyogenes; experiment: in vivo experimental bacterial infection, ED50; conditions: mice; for ED50 Values Streptococcus pyogenes Oral: two doses orally; for ED50 Values Streptococcus pyogenes Subcutaneous: two doses subcutaneously, two values = two experiments

`CCCCCCCCC(=O)N[C@@H](Cc1ccccc1)C(=O)N[C@@H](Cc1c[nH]c2ccccc12)C(=O)N[C@H](CC(N)=O)C(=O)N[C@@H](CC(=O)O)C(=O)N[C@@H]1C(=O)NCC(=O)N[C@@H](CCCN)C(=O)N[C@@H](CC(=O)O)C(=O)N[C@H](C)C(=O)N[C@@H](CC(=O)O)C(=O)NCC(=O)N[C@H](CO)C(=O)N[C@@H]([C@H](C)CC(=O)O)C(=O)N[C@@H](CC(=O)c2ccccc2N)C(=O)O[C@@H]1C` [Compound 18] showed an MIC [1] of 2 µg/mL (≈ 1.14 µM), an MIC [2] of 2 µg/mL (≈ 1.14 µM) and an MIC [3] of 4 µg/mL (≈ 2.28 µM). It also gave an MIC [4] of 4 µg/mL (≈ 2.28 µM), an MIC [5] of 2 µg/mL (≈ 1.14 µM) and an MIC [6] of 0.5 µg/mL (≈ 0.285 µM). For the same compound, the MIC [7] was 32 µg/mL (≈ 18.2 µM), the MIC [8] was 8 µg/mL (≈ 4.56 µM) and the LD50 [9] was over 600 mg/kg. The “ED50 Values Staphylococcus aureus Subcutaneous” value [10] was 1.38 mg/kg × 2, the “ED50 Values Streptococcus pyogenes Oral” value [11] was 184 mg/kg × 2 and the “ED50 Values Streptococcus pyogenes Subcutaneous” value [11] was 0.59 mg/kg × 2.
Work on `CCCCCCCCCCCC(=O)N[C@H](Cc1ccccc1)C(=O)N[C@@H](Cc1c[nH]c2ccccc12)C(=O)N[C@H](CC(N)=O)C(=O)N[C@@H](CC(=O)O)C(=O)N[C@@H]1C(=O)NCC(=O)N[C@@H](CCCN)C(=O)N[C@@H](CC(=O)O)C(=O)N[C@H](C)C(=O)N[C@@H](CC(=O)O)C(=O)NCC(=O)N[C@H](CO)C(=O)N[C@@H]([C@H](C)CC(=O)O)C(=O)N[C@@H](CC(=O)c2ccccc2N)C(=O)O[C@@H]1C` [Compound 1] yielded an MIC [1] of 0.5 µg/mL (≈ 0.278 µM), an MIC [2] of 0.5 µg/mL (≈ 0.278 µM) and an MIC [3] of 1 µg/mL (≈ 0.557 µM). The MIC [4] was 2 µg/mL (≈ 1.11 µM), the MIC [5] was 1 µg/mL (≈ 0.557 µM) and the MIC [6] was 0.125 µg/mL (≈ 0.0696 µM). The MIC [7] was 1 µg/mL (≈ 0.557 µM), the MIC [8] was 0.5 µg/mL (≈ 0.278 µM) and the LD50 [9] was 250 mg/kg. The “ED50 Values Staphylococcus aureus Subcutaneous” value [10] was 1.4 mg/kg × 2 and 2.05 mg/kg × 2, the “ED50 Values Streptococcus pyogenes Oral” value [11] was over 200 mg/kg × 2 and the “ED50 Values Streptococcus pyogenes Subcutaneous” value [11] was < 0.25 mg/kg × 2 and 0.21 mg/kg × 2.
`CCCCCCCC(=O)N[C@@H](Cc1ccccc1)C(=O)N[C@@H](Cc1c[nH]c2ccccc12)C(=O)N[C@H](CC(N)=O)C(=O)N[C@@H](CC(=O)O)C(=O)N[C@@H]1C(=O)NCC(=O)N[C@@H](CCCN)C(=O)N[C@@H](CC(=O)O)C(=O)N[C@H](C)C(=O)N[C@@H](CC(=O)O)C(=O)NCC(=O)N[C@H](CO)C(=O)N[C@@H]([C@H](C)CC(=O)O)C(=O)N[C@@H](CC(=O)c2ccccc2N)C(=O)O[C@@H]1C` [Compound 17] gave an MIC [1] of 4 µg/mL (≈ 2.3 µM), an MIC [2] of 8 µg/mL (≈ 4.6 µM) and an MIC [3] of 8 µg/mL (≈ 4.6 µM). For the same compound, the MIC [4] was 8 µg/mL (≈ 4.6 µM), the MIC [5] was 8 µg/mL (≈ 4.6 µM) and the MIC [6] was 2 µg/mL (≈ 1.15 µM). It also gave an MIC [7] of 128 µg/mL (≈ 73.6 µM), an MIC [8] of 32 µg/mL (≈ 18.4 µM) and an LD50 [9] of 450 mg/kg. For the same compound, the “ED50 Values Staphylococcus aureus Subcutaneous” value [10] was 2.58 mg/kg × 2, the “ED50 Values Streptococcus pyogenes Oral” value [11] was over 200 mg/kg × 2 and the “ED50 Values Streptococcus pyogenes Subcutaneous” value [11] was 1.48 mg/kg × 2.
For `CCCCCCCCCCCCC(=O)N[C@@H](Cc1ccccc1)C(=O)N[C@@H](Cc1c[nH]c2ccccc12)C(=O)N[C@H](CC(N)=O)C(=O)N[C@@H](CC(=O)O)C(=O)N[C@@H]1C(=O)NCC(=O)N[C@@H](CCCN)C(=O)N[C@@H](CC(=O)O)C(=O)N[C@H](C)C(=O)N[C@@H](CC(=O)O)C(=O)NCC(=O)N[C@H](CO)C(=O)N[C@@H]([C@H](C)CC(=O)O)C(=O)N[C@@H](CC(=O)c2ccccc2N)C(=O)O[C@@H]1C` [Compound 21], the MIC [1] was 0.5 µg/mL (≈ 0.276 µM), the MIC [2] was 0.5 µg/mL (≈ 0.276 µM) and the MIC [3] was 2 µg/mL (≈ 1.11 µM). For the same compound, the MIC [4] was 2 µg/mL (≈ 1.11 µM), the MIC [5] was 2 µg/mL (≈ 1.11 µM) and the MIC [6] was 0.125 µg/mL (≈ 0.0691 µM). The MIC [7] was 1 µg/mL (≈ 0.553 µM), the MIC [8] was 0.25 µg/mL (≈ 0.138 µM) and the “ED50 Values Staphylococcus aureus Subcutaneous” value [10] was 0.76 mg/kg × 2. The “ED50 Values Streptococcus pyogenes Oral” value [11] was over 200 mg/kg × 2 and the “ED50 Values Streptococcus pyogenes Subcutaneous” value [11] was 0.14 mg/kg × 2.
`CCCCCC(=O)N[C@@H](Cc1c[nH]c2ccccc12)C(=O)NCCC[C@@H]1NC(=O)CNC(=O)[C@@H](NC(=O)[C@H](CC(=O)O)NC(=O)[C@@H](CC(N)=O)NC(=O)[C@H](Cc2c[nH]c3ccccc23)NC(=O)CCCCCCCCC(C)CC)[C@@H](C)OC(=O)[C@H](CC(=O)c2ccccc2N)NC(=O)[C@H]([C@H](C)CC(=O)O)NC(=O)[C@@H](CO)NC(=O)CNC(=O)[C@H](CC(=O)O)NC(=O)[C@@H](C)NC(=O)[C@H](CC(=O)O)NC1=O` (some centres unmarked) [Compound 29] showed an MIC [3] of 1 µg/mL (≈ 0.514 µM), an MIC [7] of 8 µg/mL (≈ 4.11 µM) and an MIC [8] of 32 µg/mL (≈ 16.4 µM). The LD50 [9] was 37.5 mg/kg, the “ED50 Values Streptococcus pyogenes Oral” value [11] was over 200 mg/kg × 2 and the “ED50 Values Streptococcus pyogenes Subcutaneous” value [11] was 10.6 mg/kg × 2.

Source: patent US4396543A
